test system: HEK293 cells; test: Preliminary screening as DNA vectors, GFP transfection of HEK293 cells; assay type: cell-based; conditions: amino lipid/DOPE liposome with 75 ng plasmid DNA (psin-EGFP-IRES-Puro); number of GFP-expressing cells divided by total nuclei (Hoechst)
Description: Cell line: HEK293 cells (ATCC CRL-1573™)
Medium: DMEM supplemented with 10% fetal bovine serum (Invitrogen)
Mode of screening: cell transfection on 96-well plates
Detection (readout): percentage of the number of GFP fluorescent cells relative to the total number of cells (the total number of cells was measured using nucleus dye Hoechst—see FIG. 2). Lipofectamine2000 (Invitrogen) was used as positive control, according to the manufacturer's instructions.
Method: an 8-channel pipette was used for sample addition. The contents shown were for a single well of a 96-well flat plate.
1. The compound (0.01 mmol) prepared in Example 1 was dissolved in 1 mL of anhydrous ethanol. After ultrasonically dissolved, 10 μL of the resultant amino lipid solution in ethanol was taken and mixed with 5 μL of DOPE solution in ethanol (0.01 m), and then to the obtained mixture was added 35 μL of 0.2M sodium acetate buffer (pH 5.6), and 50 μL of liposome solution was prepared by vortex at a constant rotating speed for 30 s. 4 μL was taken from the 50 μL liposome solution and added to 46 μL of 0.02M sodium acetate buffer (pH 5.6), and the final liposome solution was formed by vortex at a constant rotating speed for 30 s. 5 μL was taken from the final liposome solution and mixed with 75 ng plasmid DNA (psin-EGFP-IRES-Puro, Clontech) dissolved in 5 μL of 0.02 M sodium acetate buffer, and was allowed to stay at room temperature for 30 min to form a lipid/DNA transfection complex.
2. 10 μL of the lipid/DNA transfection complex was incubated at room temperature for 30 min, followed by addition of 90 μL of fresh resuspended cells (3-5×10^4 cells) and mixing with a pipette. 100 μL of cells+lipid/DNA complex was transferred to separate wells of a 96-well culture plate immediately, and placed in an incubator containing 5% CO2 at 37° C.
3. Hoechst33258 (Invitrogen) was added at a final concentration of 0.2 μg/mL to the cells 20 to 24 hours after initial cell transfection, and cultured in darkness at 37° C. for 15 min. Afterwards, the cells were washed once with a PBS solution, and then added with medium for culture for 20 to 24 h.
4. The cells were placed in a high-throughput confocal microscope (Molecular Devices ImageXpress), and four visual fields of the image of the cells were captured for each well, and images at three laser wavelengths were captured for each sample: bright field images of cells (FIG. 2(a) and FIG. 2(b)), Hoechst-staining images showing total nuclei (FIG. 2(c) and FIG. 2(d)) and GFP images showing success in transfection with the plasmid DNA and the expression of GFP (FIG. 2(e) and FIG. 2(f)). MetaXpress software was used to separately count the cells in the Hoechst-staining images and GFP images, and then the number of cells expressing GFP was divided by the total number of nuclei to give the absolute cell transfection efficiency. The absolute transfection efficiency was calculated as follows: […]

Going from `CCCCCCCCCCCCCCCSc1nc(NCCN(CC)CC)nc(SCCCCCC)n1` [S6S15 D7] to `CCCCCCCCCCCCCCCCSc1nc(NCCN(CC)CC)nc(SCCCCCC)n1` [S6S16 D7], the “Absolute DNA transfection efficiency in HEK293 cells” value (from here on “Absolute DNA transfection efficiency”) rises from 3.3% to 3.7%.

Compared with `CCCCCCCCCCCCCCCSc1nc(NCCCN2CCOCC2)nc(SCCCCCC)n1` [S6S15 D8], `CCCCCCCCCCCCCCCCSc1nc(NCCCN2CCOCC2)nc(SCCCCCC)n1` [S6S16 D8] is lower in “Absolute DNA transfection efficiency” value: 11.5% for the first, 0.0% for the second.

First: CCCCCCCCCCCCCCCSc1nc(NCCCN2CCN(C)CC2)nc(SCCCCCC)n1 [S6S15 D9]
Second: CCCCCCCCCCCCCCCCSc1nc(NCCCN2CCN(C)CC2)nc(SCCCCCC)n1 [S6S16 D9]
The “Absolute DNA transfection efficiency” value of the first is higher: 8.3% for the first, 3.9% for the second.

Going from `CCCCCCCCCCCCCCCSc1nc(NCC2CCN(C)CC2)nc(SCCCCCC)n1` [S6S15 D10] to `CCCCCCCCCCCCCCCCSc1nc(NCC2CCN(C)CC2)nc(SCCCCCC)n1` [S6S16 D10], the “Absolute DNA transfection efficiency” value rises from 34.5% to 37.6%.

Going from `CCCCCCCCCCCCCCCCSc1nc(NCCN(C)C)nc(SCCCCCC)n1` [S6S16 D1] to `CCCCCCCCCCCCCCCCCCSc1nc(NCCN(C)C)nc(SCCCCCC)n1` [S6S18 D1], the “Absolute DNA transfection efficiency” value rises from 8.4% to 9.8%.

First: CCCCCCCCCCCCCCCCSc1nc(NCCN2CCOCC2)nc(SCCCCCC)n1 [S6S16 D2]
Second: CCCCCCCCCCCCCCCCCCSc1nc(NCCN2CCOCC2)nc(SCCCCCC)n1 [S6S18 D2]
The “Absolute DNA transfection efficiency” value of the first is higher: 24.0% for the first, 8.1% for the second.

First: CCCCCCCCCCCCCCCCSc1nc(NCCN2CCCC2)nc(SCCCCCC)n1 [S6S16 D3]
Second: CCCCCCCCCCCCCCCCSc1nc(NCCN2CCCCC2)nc(SCCCCCC)n1 [S6S16 D4]
The “Absolute DNA transfection efficiency” value of the first is higher: 9.8% for the first, 7.9% for the second.

Compared with `CCCCCCCCCCCCCCCCSc1nc(NCCN2CCN(C)CC2)nc(SCCCCCC)n1` [S6S16 D5], `CCCCCCCCCCCCCCCCCCSc1nc(NCCN2CCN(C)CC2)nc(SCCCCCC)n1` [S6S18 D5] is lower in “Absolute DNA transfection efficiency” value: 15.2% for the first, 15.1% for the second.

Compared with `CCCCCCCCCCCCCCCCSc1nc(NCCCN(C)C)nc(SCCCCCC)n1` [S6S16 D6], `CCCCCCCCCCCCCCCCCCSc1nc(NCCCN(C)C)nc(SCCCCCC)n1` [S6S18 D6] is lower in “Absolute DNA transfection efficiency” value: 0.4% for the first, 0.0% for the second.

Compared with `CCCCCCCCCCCCCCCCCCSc1nc(NCCN2CCCC2)nc(SCCCCCC)n1` [S6S18 D3], `CCCCCCCCCCCCCCCCCCSc1nc(NCCN2CCCCC2)nc(SCCCCCC)n1` [S6S18 D4] is lower in “Absolute DNA transfection efficiency” value: 13.8% for the first, 10.4% for the second.

First: CCCCCCCCCCCCCCCCCCSc1nc(NCCN(CC)CC)nc(SCCCCCC)n1 [S6S18 D7]
Second: CCCCCCCCCCCCN(CCCCCCCCCCCC)c1nc(NCCN(CC)CC)nc(SCCCCCC)n1 [S6^2N12 D7]
The “Absolute DNA transfection efficiency” value of the first is higher: 6.4% for the first, 0.3% for the second.

Going from `CCCCCCCCCCCCCCCCCCSc1nc(NCCCN2CCOCC2)nc(SCCCCCC)n1` [S6S18 D8] to `CCCCCCCCCCCCCCCCCCSc1nc(NCCCN2CCN(C)CC2)nc(SCCCCCC)n1` [S6S18 D9], the “Absolute DNA transfection efficiency” value falls from 15.9% to 8.7%.

First: CCCCCCCCCCCCCCCCCCSc1nc(NCC2CCN(C)CC2)nc(SCCCCCC)n1 [S6S18 D10]
Second: CCCCCCCCCCCCN(CCCCCCCCCCCC)c1nc(NCC2CCN(C)CC2)nc(SCCCCCC)n1 [S6^2N12 D10]
The “Absolute DNA transfection efficiency” value of the first is higher: 34.7% for the first, 0.0% for the second.

Compared with `CCCCCCCCCCCCN(CCCCCCCCCCCC)c1nc(NCCN(C)C)nc(SCCCCCC)n1` [S6^2N12 D1], `CCCCCCCCCCCCN(CCCCCCCCCCCC)c1nc(NCCCN(C)C)nc(SCCCCCC)n1` [S6^2N12 D6] is lower in “Absolute DNA transfection efficiency” value: 0.4% for the first, 0.2% for the second.

`CCCCCCCCCCCCN(CCCCCCCCCCCC)c1nc(NCCN2CCOCC2)nc(SCCCCCC)n1` [S6^2N12 D2] and `CCCCCCCCCCCCN(CCCCCCCCCCCC)c1nc(NCCCN2CCOCC2)nc(SCCCCCC)n1` [S6^2N12 D8] are the same in “Absolute DNA transfection efficiency” value: 0.0% for the first, 0.0% for the second.

`CCCCCCCCCCCCN(CCCCCCCCCCCC)c1nc(NCCN2CCCC2)nc(SCCCCCC)n1` [S6^2N12 D3] and `CCCCCCCCCCCCN(CCCCCCCCCCCC)c1nc(NCCN2CCCCC2)nc(SCCCCCC)n1` [S6^2N12 D4] are the same in “Absolute DNA transfection efficiency” value: 0.1% for the first, 0.1% for the second.

First: CCCCCCCCCCCCN(CCCCCCCCCCCC)c1nc(NCCN2CCN(C)CC2)nc(SCCCCCC)n1 [S6^2N12 D5]
Second: CCCCCCCCCCCCN(CCCCCCCCCCCC)c1nc(NCCCN2CCN(C)CC2)nc(SCCCCCC)n1 [S6^2N12 D9]
The “Absolute DNA transfection efficiency” value of the first is lower: 0.0% for the first, 0.4% for the second.

Going from `CCCCCCCSc1nc(NCCCCCC)nc(NCCN(C)C)n1` [S7N6 D1] to `CCCCCCCNc1nc(NCCN(C)C)nc(SCCCCCCC)n1` [S7N7 D1], the “Absolute DNA transfection efficiency” value rises from 17.6% to 23.6%.

First: CCCCCCCSc1nc(NCCCCCC)nc(NCCN2CCOCC2)n1 [S7N6 D2]
Second: CCCCCCCNc1nc(NCCN2CCOCC2)nc(SCCCCCCC)n1 [S7N7 D2]
The “Absolute DNA transfection efficiency” value of the first is lower: 1.8% for the first, 2.5% for the second.

First: CCCCCCCSc1nc(NCCCCCC)nc(NCCN2CCCC2)n1 [S7N6 D3]
Second: CCCCCCCSc1nc(NCCCCCC)nc(NCCN2CCCCC2)n1 [S7N6 D4]
The “Absolute DNA transfection efficiency” value of the first is higher: 34.7% for the first, 8.7% for the second.

First: CCCCCCCSc1nc(NCCCCCC)nc(NCCN2CCN(C)CC2)n1 [S7N6 D5]
Second: CCCCCCCNc1nc(NCCN2CCN(C)CC2)nc(SCCCCCCC)n1 [S7N7 D5]
The “Absolute DNA transfection efficiency” value of the first is lower: 28.5% for the first, 33.5% for the second.

Going from `CCCCCCCSc1nc(NCCCCCC)nc(NCCCN(C)C)n1` [S7N6 D6] to `CCCCCCCNc1nc(NCCCN(C)C)nc(SCCCCCCC)n1` [S7N7 D6], the “Absolute DNA transfection efficiency” value rises from 27.2% to 33.5%.

First: CCCCCCCSc1nc(NCCCCCC)nc(NCCN(CC)CC)n1 [S7N6 D7]
Second: CCCCCCCNc1nc(NCCN(CC)CC)nc(SCCCCCCC)n1 [S7N7 D7]
The “Absolute DNA transfection efficiency” value of the first is lower: 11.2% for the first, 11.4% for the second.

Compared with `CCCCCCCSc1nc(NCCCCCC)nc(NCCCN2CCOCC2)n1` [S7N6 D8], `CCCCCCCNc1nc(NCCCN2CCOCC2)nc(SCCCCCCC)n1` [S7N7 D8] is higher in “Absolute DNA transfection efficiency” value: 4.7% for the first, 5.3% for the second.

Compared with `CCCCCCCSc1nc(NCCCCCC)nc(NCCCN2CCN(C)CC2)n1` [S7N6 D9], `CCCCCCCNc1nc(NCCCN2CCN(C)CC2)nc(SCCCCCCC)n1` [S7N7 D9] is lower in “Absolute DNA transfection efficiency” value: 20.3% for the first, 10.9% for the second.

Going from `CCCCCCCSc1nc(NCCCCCC)nc(NCC2CCN(C)CC2)n1` [S7N6 D10] to `CCCCCCCNc1nc(NCC2CCN(C)CC2)nc(SCCCCCCC)n1` [S7N7 D10], the “Absolute DNA transfection efficiency” value rises from 6.3% to 8.6%.

Going from `CCCCCCCNc1nc(NCCN2CCCC2)nc(SCCCCCCC)n1` [S7N7 D3] to `CCCCCCCNc1nc(NCCN2CCCCC2)nc(SCCCCCCC)n1` [S7N7 D4], the “Absolute DNA transfection efficiency” value rises from 9.2% to 11.3%.

Going from `CCCCCCCCNc1nc(NCCN(C)C)nc(SCCCCCCC)n1` [S7N8 D1] to `CCCCCCCCNc1nc(NCCCN(C)C)nc(SCCCCCCC)n1` [S7N8 D6], the “Absolute DNA transfection efficiency” value rises from 15.6% to 22.3%.

`CCCCCCCCNc1nc(NCCN2CCOCC2)nc(SCCCCCCC)n1` [S7N8 D2] and `CCCCCCCCNc1nc(NCCCN2CCOCC2)nc(SCCCCCCC)n1` [S7N8 D8] are the same in “Absolute DNA transfection efficiency” value: 2.7% for the first, 2.7% for the second.

Compared with `CCCCCCCCNc1nc(NCCN2CCCC2)nc(SCCCCCCC)n1` [S7N8 D3], `CCCCCCCCNc1nc(NCCN2CCCCC2)nc(SCCCCCCC)n1` [S7N8 D4] is higher in “Absolute DNA transfection efficiency” value: 9.3% for the first, 15.5% for the second.

First: CCCCCCCCNc1nc(NCCN2CCN(C)CC2)nc(SCCCCCCC)n1 [S7N8 D5]
Second: CCCCCCCCNc1nc(NCCN(CC)CC)nc(SCCCCCCC)n1 [S7N8 D7]
The “Absolute DNA transfection efficiency” value of the first is lower: 22.1% for the first, 26.8% for the second.

From patent US20230123334A1, “AMINO LIPID COMPOUND, PREPARATION METHOD THEREFOR, AND APPLICATION THEREOF” (SHENZHEN SHENXIN BIOTECHNOLOGY CO., LTD., priority 2020, published 2023)
